According to ChEMBL document CHEMBL1909046, “DrugMatrix in vitro pharmacology data”:
pIC50, pKi: −log10 of the molar value.

Key:
Leukotriene C4 synthase = biological target: T1, Leukotriene C4 synthase (Cavia porcellus, UniProt A6XA80); assay: biochemical; assay type: tissue-based, Lung;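 further: enzyme inhibition assay of leukotriene C4 synthase, using LTA4 as the substrate; in other assays of this panel Not Active means under 50% inhibition at 10 µM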
T1 sequence (A6XA80 whole entry): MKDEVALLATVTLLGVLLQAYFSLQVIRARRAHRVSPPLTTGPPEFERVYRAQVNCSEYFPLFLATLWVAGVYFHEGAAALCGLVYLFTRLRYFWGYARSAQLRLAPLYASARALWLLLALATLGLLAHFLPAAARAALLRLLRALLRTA

Cytochrome P450 2D6 = Cytochrome P450 2D6 (Homo sapiens, UniProt P10635); settings: bti-tn-5b1-4; further: in other assays of this panel Not Active means under 50% inhibition at 10 µM
B2 bradykinin receptor = biological target: T2, B2 bradykinin receptor (Homo sapiens, UniProt P30411); assay type: cell membranes, Membrane; settings: chem-1; further: in other assays of this panel Not Active means under 50% inhibition at 10 µM
T2 sequence (P30411 whole entry): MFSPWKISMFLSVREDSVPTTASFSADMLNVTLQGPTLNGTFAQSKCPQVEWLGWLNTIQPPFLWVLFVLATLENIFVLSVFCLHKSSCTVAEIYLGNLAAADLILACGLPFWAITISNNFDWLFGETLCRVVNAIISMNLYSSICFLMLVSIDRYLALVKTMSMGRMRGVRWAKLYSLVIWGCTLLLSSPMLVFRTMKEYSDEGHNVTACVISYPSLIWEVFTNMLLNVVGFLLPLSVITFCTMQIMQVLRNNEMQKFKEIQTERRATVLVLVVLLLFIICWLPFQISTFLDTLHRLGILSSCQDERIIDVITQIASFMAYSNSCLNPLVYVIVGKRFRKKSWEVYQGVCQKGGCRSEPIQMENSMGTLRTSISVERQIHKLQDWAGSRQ

[1] = DRUGMATRIX: Calcium Channel Type L, Benzothiazepine radioligand binding (ligand: [3H] Diltiazem); assay type: cell membranes, Rattus norvegicus, Wistar, Brain, Membrane; settings: Not Active = under 50% inhibition at 10 µM
[2] = biological target: T3, 5-hydroxytryptamine receptor 2C (Homo sapiens, UniProt P28335); assay: DRUGMATRIX: Serotonin (5-Hydroxytryptamine) 5-HT2C radioligand binding (ligand: [3H] Mesulergine); assay type: cell membranes, CHO-K1, Membrane; settings: Not Active = under 50% inhibition at 10 µM
T3 sequence (P28335 whole entry): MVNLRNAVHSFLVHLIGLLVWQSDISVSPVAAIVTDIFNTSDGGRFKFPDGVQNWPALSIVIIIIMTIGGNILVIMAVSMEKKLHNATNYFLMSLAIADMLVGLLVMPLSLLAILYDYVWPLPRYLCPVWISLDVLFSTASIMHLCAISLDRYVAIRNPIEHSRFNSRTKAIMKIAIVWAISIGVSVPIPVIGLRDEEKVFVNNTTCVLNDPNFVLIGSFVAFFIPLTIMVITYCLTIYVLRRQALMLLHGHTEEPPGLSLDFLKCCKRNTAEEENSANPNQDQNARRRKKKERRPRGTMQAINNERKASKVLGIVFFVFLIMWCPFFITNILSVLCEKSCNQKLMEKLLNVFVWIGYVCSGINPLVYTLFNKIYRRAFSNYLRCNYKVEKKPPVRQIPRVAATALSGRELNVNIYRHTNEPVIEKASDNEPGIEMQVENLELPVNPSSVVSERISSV

[3] = biological target: Prostaglandin G/H synthase 1 (Homo sapiens, UniProt P23219); assay: biochemical; assay type: tissue-based, Platelet; settings: platelet;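 further: inhibition of COX-1 enzyme activity, with arachidonic acid supplied as substrate; in other assays of this panel Not Active means under 50% inhibition at 10 µM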
Sequence of Prostaglandin G/H synthase 1 (P23219 whole entry): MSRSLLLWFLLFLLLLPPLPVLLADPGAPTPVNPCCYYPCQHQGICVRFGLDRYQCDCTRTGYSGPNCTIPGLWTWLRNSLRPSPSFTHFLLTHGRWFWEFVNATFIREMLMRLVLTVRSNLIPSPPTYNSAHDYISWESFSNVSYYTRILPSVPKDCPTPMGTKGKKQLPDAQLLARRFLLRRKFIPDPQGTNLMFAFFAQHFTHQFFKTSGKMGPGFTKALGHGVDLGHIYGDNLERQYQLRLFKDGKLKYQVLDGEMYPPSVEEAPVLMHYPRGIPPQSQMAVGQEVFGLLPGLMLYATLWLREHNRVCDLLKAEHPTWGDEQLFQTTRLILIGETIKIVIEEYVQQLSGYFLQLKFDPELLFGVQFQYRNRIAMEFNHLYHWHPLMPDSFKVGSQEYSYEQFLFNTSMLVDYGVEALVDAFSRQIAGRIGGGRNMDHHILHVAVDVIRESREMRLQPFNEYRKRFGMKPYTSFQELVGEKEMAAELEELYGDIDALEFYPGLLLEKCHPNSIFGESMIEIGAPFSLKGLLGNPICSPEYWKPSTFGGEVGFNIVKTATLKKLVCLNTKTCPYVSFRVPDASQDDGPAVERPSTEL

Sequence of Cytochrome P450 2D6 (P10635 whole entry): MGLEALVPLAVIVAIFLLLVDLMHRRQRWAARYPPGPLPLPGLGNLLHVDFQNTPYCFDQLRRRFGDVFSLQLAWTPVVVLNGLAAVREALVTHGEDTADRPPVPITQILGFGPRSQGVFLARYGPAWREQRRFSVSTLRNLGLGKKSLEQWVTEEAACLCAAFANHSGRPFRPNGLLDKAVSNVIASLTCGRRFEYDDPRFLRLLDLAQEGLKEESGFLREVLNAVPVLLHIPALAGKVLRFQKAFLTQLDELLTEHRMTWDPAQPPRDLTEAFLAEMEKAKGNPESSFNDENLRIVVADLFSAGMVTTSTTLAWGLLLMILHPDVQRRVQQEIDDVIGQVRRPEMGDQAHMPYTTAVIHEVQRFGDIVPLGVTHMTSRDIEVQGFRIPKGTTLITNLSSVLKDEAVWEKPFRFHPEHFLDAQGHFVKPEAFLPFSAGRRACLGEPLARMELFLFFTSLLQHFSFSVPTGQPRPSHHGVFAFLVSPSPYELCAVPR

Molecule	IC50 (Leukotriene C4 synthase)	IC50 (Cytochrome P450 2D6)	Ki (Cytochrome P450 2D6)	IC50 (B2 bradykinin receptor)	IC50 [1]	Ki [1]	IC50 ([2]; cho-k1)	IC50 [3]	Ki [3]	Ki (Leukotriene C4 synthase)	Ki (B2 bradykinin receptor)	Ki ([2]; cho-k1)	pIC50 ([1]; read-out: IC50)	pKi ([1]; read-out: Ki)	pIC50 ([2]; read-out: IC50)	pKi ([2]; read-out: Ki)
O=C(O)CCc1nc(-c2ccccc2)c(-c2ccccc2)o1 [OXAPROZIN]	Not Active	Not Active	Not Active	Not Active	Not Active	Not Active	Not Active	–	–	–	–	–	–	–	–	–
NCC(CC(=O)O)c1ccc(Cl)cc1 (stereo not given) [BACLOFEN]	Not Active	Not Active	Not Active	Not Active	Not Active	Not Active	Not Active	Not Active	–	–	–	–	–	–	–	–
CC[C@H]1OC(=O)[C@H](C)[C@@H](O[C@H]2C[C@@](C)(OC)[C@@H](O)[C@H](C)O2)[C@H](C)[C@@H](O[C@@H]2O[C@H](C)C[C@H](N(C)C)[C@H]2O)[C@](C)(O)C[C@@H](C)C(=O)[C@H](C)[C@@H](O)[C@]1(C)O [ERYTHROMYCIN]	Not Active	Not Active	Not Active	Not Active	Not Active	Not Active	Not Active	Not Active	–	–	–	–	–	–	–	–
C=CCO [ALLYL ALCOHOL]	Not Active	Not Active	Not Active	Not Active	Not Active	Not Active	Not Active	Not Active	–	–	–	–	–	–	–	–
COC(=O)C[C@](O)(CCC(C)(C)O)C(=O)O[C@@H]1C(OC)=C[C@]23CCCN2CCc2cc4c(cc2[C@H]13)OCO4 [HARRINGTONINE]	Not Active	Not Active	Not Active	Not Active	Not Active	Not Active	Not Active	Not Active	–	–	–	–	–	–	–	–
CHROMIC CHLORIDE	Not Active	Not Active	Not Active	Not Active	Not Active	Not Active	Not Active	Not Active	Not Active	Not Active	Not Active	Not Active	–	–	–	–
C#C[C@]1(O)CC[C@H]2[C@@H]3CCC4=CC(=O)CC[C@@H]4[C@H]3CC[C@@]21C [NORETHINDRONE]	Not Active	Not Active	Not Active	Not Active	Not Active	Not Active	Not Active	Not Active	–	–	–	–	–	–	–	–
c1ccc(Cn2ccnc2)cc1	Not Active	–	–	Not Active	Not Active	Not Active	Not Active	Not Active	–	–	–	–	–	–	–	–
CN(Cc1cc(Br)cc(Br)c1N)C1CCCCC1 [BROMHEXINE]	Not Active	–	–	Not Active	Not Active	Not Active	Not Active	Not Active	–	–	–	–	–	–	–	–
C[C@H]1C[C@H]2[C@@H]3CCC4=CC(=O)C=C[C@]4(C)[C@@]3(F)[C@@H](O)C[C@]2(C)[C@@]1(O)C(=O)CO [BETAMETHASONE]	Not Active	–	–	Not Active	Not Active	Not Active	Not Active	Not Active	–	–	–	–	–	–	–	–
NS(=O)(=O)c1cc(C(=O)O)c(NCc2ccco2)cc1Cl [FUROSEMIDE]	Not Active	–	–	Not Active	Not Active	Not Active	Not Active	Not Active	–	–	–	–	–	–	–	–
CC(N)Cc1c[nH]c2ccc(OCc3cccs3)cc12 (stereo not given) [BW-723C86]	Not Active	–	–	Not Active	–	–	–	Not Active	–	–	–	–	5.46	5.51	6.69	6.97
CCN(CCO)CCCC(C)Nc1ccnc2cc(Cl)ccc12 (stereo not given) [HYDROXYCHLOROQUINE]	Not Active	–	–	Not Active	Not Active	Not Active	Not Active	Not Active	–	–	–	–	–	–	–	–
CC(C)Cc1ccc([C@H](C)C(=O)O)cc1 [DEXIBUPROFEN]	Not Active	Not Active	Not Active	Not Active	Not Active	Not Active	Not Active	–	–	–	–	–	–	–	–	–
CC(C)NCC(O)COc1ccc(CC(N)=O)cc1 (stereo not given) [ATENOLOL]	Not Active	–	–	Not Active	Not Active	Not Active	Not Active	Not Active	–	–	–	–	–	–	–	–
O=C(O)CNCP(=O)(O)O [GLYPHOSATE]	Not Active	–	–	Not Active	Not Active	Not Active	Not Active	Not Active	–	–	–	–	–	–	–	–
